Laboratory results published in patent US20080221070A1, “METHODS AND COMPOUNDS FOR THE TARGETED DELIVERY OF AGENTS TO BONE FOR INTERACTION THEREWITH” (priority 2007, published 2008).

Tests used:
[1] = system: bilaterally ovariectomized (OVX) rats; test: Uterine mass and uterine mass to body weight ratio in OVX rats; type: in vivo, Sprague-Dawley female rats; details: for effect on uterine mass to body weight ratio: FIG. 9
Procedure: (§1) Animals. Six month old, bilaterally ovariectomized (OVX) or sham operated Sprague-Dawley female rats (Harlan Laboratories, Indianapolis, Ind.) were maintained at the University of Louisville Research Resources Center at 22° C. with a 12-h light/dark cycle and ad libitum access to tap water and rodent chow (Purina Laboratory Rodent Diet 5001). All animal procedures were approved by the Institutional Animal Care and Use Committee, which is certified by the American Association for Accreditation of Laboratory Animal Care.
(§2) In vivo experiments were conducted in order to investigate the efficacy of compounds of the presently-disclosed subject matter. In all of the experiments, OVX and sham operated rats were randomly divided into groups of 5-7 animals. In all of the studies experimental groups included: i) Sham-operated control (euthanized six weeks post surgery as a pretreatment control), ii) OVX control (euthanized six weeks post surgery as a pretreatment control), iii) Sham control receiving vehicle, iv) OVX control receiving vehicle, v) OVX receiving 17-ethinyl estradiol (equimolar concentration with a selected test compound), vi) OVX receiving alendronate (1.6 mg/kg), and vii) OVX receiving parathyroid hormone 1-34 (PTH) (80 μg/kg). 17-ethinyl estradiol (17 EE) is a free estrogenic agent known to be orally active, and can serve as an example of an anti-catabolic agent. Alendronate (Alen) is a bisphosphonate that is currently used to treat osteoporosis (e.g., Fosamax®, Merck & Co., Inc,), and can serve as an example of an anti-catabolic agent. Parathyroid hormone 1-34 (PTH) is an agent that can serve as an example of an anabolic agent. All compounds and vehicle (1% DMSO in corn oil) were administered three times per week orally by gavage except for PTH which was administered via a subcutaneous injection in a volume of 0.5 ml/kg body mass thrice per week. Compound administration was initiated 6 weeks following surgery and lasted for 6 weeks (18 doses total).
(§3) Compounds of the presently-disclosed subject matter were orally administered to OVX rats at various doses. As indicated above all BTE's were administered three times per week for 6 weeks.
(§4) Following 6 weeks of treatment, blood was obtained from each animal via cardiac puncture following an overnight fast and animals were subsequently euthanized via carbon dioxide asphyxiation. Blood was centrifuged immediately and the obtained serum samples were aliquoted and stored at −70° C. prior to analysis. Uteri were removed and fresh weights were obtained. Uterine masses were normalized to body mass at the end of the experiment. The left and right femora and left and right tibiae were subsequently collected from each animal, cleaned of soft tissue, and stored in saline at 4° C. prior to analysis.
Uterine Mass and Body Weight. […] Uterine mass can be used to as a measure of estrogenic effect occurring in a tissue outside the bone in response to treatment with a test compound or composition. Generally, a lower uterine mass can be associated with a decreased risk of adverse side effects associated with the test compound or composition. A ratio of uterine mass to body weight can be used to correct for any increase in uterine size attributable to the relative size of the individual animal. Body weight and/or uterine mass also serve as an indirect measures of toxicity of a test compound.

[2] = system: bilaterally ovariectomized (OVX) rats; test: RatLaps ELISA for C-telopeptide fragments of collagen type I (CTX-I) in serum; type: in vivo, Sprague-Dawley female rats; details: Formulas 66 and 67 at 250 μg/kg doses, 17-ethinyl estradiol equimolar, FIG. 16
Procedure: as §1
as §2, with “All compounds and vehicle (1% DMSO in corn oil) were administered three times per week orally by gavage except for PTH which was administered via a subcutaneous injection in a volume of 0.5 ml/kg body mass thrice per week. Compound administration was initiated 6 weeks following surgery and lasted for 6 weeks (18 doses total).” left out
RatLaps™ ELISA for C-telopeptide Fragments of Collagen Type I (CTX-I). […] Bone resorption (CTX-I) was quantitatively assessed in rat serum using the commercially available RatLaps™ ELISA KIT from Nordic Bioscience Diagnostics A/S (Herlev, Denmark) as recommended by the manufacturer.

[3] = Body weight of OVX rats during treatment; type: in vivo, Sprague-Dawley female rats
Procedure: as §1, §2, §3, §4
Uterine Mass and Body Weight. […]

[4] = system: bilaterally ovariectomized (OVX) rats; test: Lipid metabolism (total cholesterol, HDL, LDL) in rat serum; type: in vivo, Sprague-Dawley female rats; details: present-tense statement, no data
Procedure: as §1
(§5) In vivo experiments were conducted in order to investigate the efficacy of compounds of the presently-disclosed subject matter. In all of the experiments, OVX and sham operated rats were randomly divided into groups of 5-7 animals. […]
Quantitative Determination of Lipid Metabolism (Total Cholesterol HDL, and LDL) in Rat Serum. Total cholesterol, high-density lipoprotein (HDL), and low-density lipoprotein (LDL) were quantitatively determined in the serum of rats in order to evaluate the extraosseous effects of estrogen treatment on lipid metabolism. […]

[5] = system: bilaterally ovariectomized (OVX) rats; test: Femoral density via Archimedes' Principle (whole bone); type: in vivo, Sprague-Dawley female rats; details: right femora
Procedure: as §1, §2
(§6) Following 6 weeks of treatment, blood was obtained from each animal via cardiac puncture following an overnight fast and animals were subsequently euthanized via carbon dioxide asphyxiation. Blood was centrifuged immediately and the obtained serum samples were aliquoted and stored at −70° C. prior to analysis. Uteri were removed and fresh weights were obtained. […]
Femoral Density via Archimedes' Principle. […] Densities were determined using Archimedes' Principle according to the following formula: density=[mass of hydrated femur/(mass of hydrated femur−mass of hydrated femur submerged in water)]×density of distilled water at a given temperature (See Keenan, et al. Comparison of bone density measurement techniques: DXA and Archimedes' principle. J Bone Miner Res 1997; 12:1903-7.). […]

[6] = system: bilaterally ovariectomized (OVX) rats; test: Regional femoral density via Archimedes' Principle; type: in vivo, Sprague-Dawley female rats
Procedure: as §1, §2
as §6, with “obtained. Uterine masses were normalized to body mass at the end of the experiment.” for “obtained.”
Regional Femoral Density via Archimedes' Principle. […] Briefly, each femur was measured with a Cen-Tech Digital Caliper and a cut was made from each end at 20% of the length of the femur plus half the width of the blade. Subsequently, the bone marrow was washed out of the femoral diaphysis and the Archimedes density for each of the three femoral regions was determined as described above.

[7] = system: bilaterally ovariectomized (OVX) rats; test: Volume fraction, ex vivo micro-computed tomography of tibia; type: in vivo, Sprague-Dawley female rats; details: for bone density by trabecular volume fraction: ex vivo micro-CT, compared to OVX animals, FIG. 14; for bone density in three-dimensional micro-CT images: reconstructed images, FIG. 15
Procedure: as §1, §2, §4
Volume Fraction—Ex vivo micro-computed tomography (μCT). Volume fraction is a representative value for the amount of bone that occupies a given volume or space. […]

[8] = system: bilaterally ovariectomized (OVX) rats; test: Bone mechanical competence indentation test; type: in vivo, Sprague-Dawley female rats; details: proximal tibial metaphysis, present-tense statement, no data
Procedure: as §1
In vivo experiments were conducted in order to investigate the efficacy of compounds of the presently-disclosed subject matter. In all of the experiments, OVX and sham operated rats were randomly divided into groups of 5-7 animals. In all of the studies experimental groups included: i) Sham-operated control (euthanized six weeks post surgery as a pretreatment control), ii) OVX control (euthanized six weeks post surgery as a pretreatment control), iii) Sham control receiving vehicle, iv) OVX control receiving vehicle, v) OVX receiving 17-ethinyl estradiol (equimolar concentration with a selected test compound), vi) OVX receiving alendronate (1.6 mg/kg), and vii) OVX receiving parathyroid hormone 1-34 (PTH) (80 μg/kg). 17-ethinyl estradiol (17 EE) is a free estrogenic agent known to be orally active, and can serve as an example of an anti-catabolic agent. […]

[9] = system: bilaterally ovariectomized (OVX) rats; test: Rat Osteocalcin EIA (serum); type: in vivo, Sprague-Dawley female rats; details: versus OVX controls; FIG. 17
Procedure: as §1, §5
Rat Osteocalcin EIA. […] Rat serum osteocalcin levels were measured using the Rat Osteocalcin EIA Kit from Biomedical Technologies, Incorporated (Stoughton, Mass.) as recommended by the manufacturer.

[10] = system: ICR Swiss mice; test: Periosteal bone formation in mouse calvarial injection model; type: in vivo; details: subcutaneous over calvariae; histomorphometry; present-tense statement, no data
Procedure: Stimulation of Periosteal Bone Formation in a Mouse Calvarial Injection Model. The anabolic (bone formation) potential of compounds of the presently-disclosed subject matter are evaluated in the mouse calvarial injection model. Briefly, 4-week-old ICR Swiss mice are injected subcutaneously over the surface of the calvariae with compounds of the presently-disclosed subject matter at concentrations of 0, 1, 3, and 10 mg/kg/day for 5 days (twice a day). Microtubule inhibitor TN-16 (5 mg/kg/day for 2 days, twice a day) are used as a positive control. Mice are sacrificed two weeks after the injections are completed. Dissected calvarial samples are fixed in 10% phosphate-buffered formalin for 2 days, decalcified in 10% EDTA for 2 weeks and then embedded in paraffin. Histological sections are cut and stained with H&E and orange G. New woven bone formation (new bone area) is quantified by histomorphometry using the OsteoMeasure system (OsteoMetrics Inc., Atlanta, Ga.).

[11] = Hydroxyapatite (HA) Binding Assay; details: binding to hydroxyapatite; 10^−5 M analyte, 50 mM Tris-HCl pH 7.4, 1% DMSO; tetracycline reference
Description: The supernatant was transferred to another microcentrifuge tube.

[12] = OVX rats, oral, test compounds 25 or 250 μg/kg, 17-ethinyl estradiol equimolar, 3 times per week for 6 weeks, FIG. 8
[13] = OVX rats, oral, test compounds 25 or 250 μg/kg, 17-ethinyl estradiol equimolar, 3 times per week for 6 weeks
[14] = oral 25 or 250 μg/kg, 3 times per week for 6 weeks, FIG. 7
[15] = proximal and distal left femur and left femoral diaphysis, oral 25 or 250 μg/kg, FIGS. 11, 12, 13
[16] = oral 3 times per week for 6 weeks, FIG. 1
[17] = proximal and distal left femur, FIGS. 5 and 6

SMILES | effect on uterine mass [1, 12] | effect on uterine mass to body weight ratio [1, 13] | production of CTX-I (bone resorption) [2] | effect on body weight [3, 14] | effect on lipid metabolism [4] | whole bone density ([5]; oral 25 or 250 μg/kg, FIG. 10) | regional bone density [6, 15] | bone density by trabecular volume fraction [7] | bone density in three-dimensional micro-CT images [7] | bone strength [8] | serum osteocalcin levels [9] | new bone area [10] | Binding Index [11] | effect on body weight [3, 16] | effect on uterine mass ([1]; rat, in vivo, po) | whole bone density ([5]; FIG. 4) | regional bone density [6, 17]
C#C[C@]1(O)CC[C@H]2[C@@H]3CCc4cc(O)ccc4[C@H]3CC[C@@]21C [17-ethinyl estradiol, reference compound] | induced an increase | induced an increase | decreased the production of CTX-1 to below sham levels |  |  |  |  |  |  |  |  |  |  |  |  |  | 
CCCCOP(=O)(OCCCC)Oc1ccc2c(c1)CCC1C2CC[C@]2(C)C1CC[C@H]2OCCC(=O)Nc1ccc(OC)c(C(N)=O)c1O (stereo partly drawn) [Formula 66] | limited or no effect | limited or no effect | do not inhibit | limited or no effect | limited or no effect | in the same ranges as those animals receiving 17-ethinyl estradiol (17 EE), Alendronate (Alen), or Parathyroid hormone 1-34 (PTH) | increased | increased | affected an increase | increase | lower than in OVX controls | increase |  |  |  |  | 
C[C@]12CC[C@@H]3c4ccc(O)cc4CC[C@H]3[C@@H]1CC[C@@H]2O [17,β-estradiol] |  |  |  |  |  |  |  |  |  |  |  |  | −8 |  |  |  | 
COc1ccc(NC(=O)CCO[C@@H]2CCC3C4CCc5cc(OP(=O)(OCc6ccccc6)OCc6ccccc6)ccc5C4CC[C@]32C)c(O)c1C(N)=O (stereo partly drawn) [Formula 67] | limited or no effect | limited or no effect | do not inhibit | limited or no effect | limited or no effect | in the same ranges as those animals receiving 17-ethinyl estradiol (17 EE), Alendronate (Alen), or Parathyroid hormone 1-34 (PTH) | increased | increased | affected an increase | increase | lower than in OVX controls | increase |  |  |  |  | 
NC(=O)c1c(OCc2ccccc2)ccc(N)c1O [BTA-3] |  |  |  |  |  |  |  |  |  |  |  |  |  | no effect | no effect | not significantly effected | not significantly effected
COc1ccc(N)c(O)c1C(N)=O [BTA-2] |  |  |  |  |  |  |  |  |  |  |  |  |  | no effect | no effect | not significantly effected | not significantly effected
